Source: publication PMC9693223 (Molecules, 2022)
Several values for one entry are separate records, joined by “and”; a condition that tells them apart may be missing. Equal entries are not always repeated. Where two headings read alike, the source gives them in different places.

Key:
[1] = tested on: L. mexicana Cas9^ΔNT1+TcrNT2 promastigotes; set-up: method as in de Almeida Fiuza et al. [41]; conditions: L. mexicana Cas9^ΔNT1+TcrNT2 promastigotes; starred values; ref de Almeida Fiuza et al. [41]; read-out: EC50 (µM) AVG ± SEM, L. mexicana Cas9^ΔNT1+TcrNT2; cited from earlier work
[2] = tested on: L. mexicana Cas9 promastigotes; set-up: method as in de Almeida Fiuza et al. [41]; conditions: starred values, ref de Almeida Fiuza et al. [41], read-out: EC50 (µM) AVG ± SEM, Cas9; cited from earlier work
[3] = tested on: L. mexicana Cas9^ΔNT1 promastigotes; set-up: method as in de Almeida Fiuza et al. [41]; conditions: L. mexicana Cas9^ΔNT1 promastigotes; starred values; ref de Almeida Fiuza et al. [41]; read-out: EC50 (µM) AVG ± SEM, L. mexicana Cas9^ΔNT1; cited from earlier work
[4] = target: T1, TcrNT2 (Trypanosoma cruzi, UniProt Q4DHG0); conditions: TcrNT2 expressed in T. brucei, cited from earlier work
T1 sequence (Q4DHG0 entry or part of it): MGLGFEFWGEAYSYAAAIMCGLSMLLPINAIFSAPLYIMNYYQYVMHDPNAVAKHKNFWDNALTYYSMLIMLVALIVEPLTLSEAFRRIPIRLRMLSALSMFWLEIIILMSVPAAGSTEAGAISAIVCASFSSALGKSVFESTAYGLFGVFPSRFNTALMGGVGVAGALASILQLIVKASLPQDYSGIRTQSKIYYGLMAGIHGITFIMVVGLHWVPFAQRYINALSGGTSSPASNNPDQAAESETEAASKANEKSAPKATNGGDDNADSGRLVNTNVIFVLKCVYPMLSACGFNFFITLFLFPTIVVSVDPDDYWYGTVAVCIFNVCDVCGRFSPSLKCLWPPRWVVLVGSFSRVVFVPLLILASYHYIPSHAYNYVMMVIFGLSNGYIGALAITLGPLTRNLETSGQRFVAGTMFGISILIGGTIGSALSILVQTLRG

[5] = tested on: L. mexicana Cas9 promastigotes; test: Alamar blue drug sensitivity assay, L. mexicana Cas9 promastigotes; format: cell-based, Leishmania mexicana; conditions: Leishmania mexicana, 120 h, 72 h + 48 h resazurin, at least 3 independent determinations, read-out: EC50 (µM) AVG ± SEM, Cas9
From the text: We used L. mexicana promastigotes of the Cas9 strain developed by Beneke at al. to generate the ΔNT1 strain, and from there the Cas9^ΔNT1+TcrNT2 (see below); The original Cas9 strain was generously donated by Prof. Eva Gluenz (University of Bern, Switzerland). All strains in standard HOMEM (GIBCO, Life Technologies, Paisley, UK) supplemented with 10% heat-inactivated fetal bovine serum (FBS; PAA Laboratories, Linz, Austria) and 1% of a penicillin–streptomycin solution (10,000 U mL^−1 each; Life Technologies) at 25 °C, as described.
The Alamar blue assay (resazurin sodium salt) was used to determine the drug sensitivity of the L. mexicana promastigotes in vitro. The assay is based on the reduction of resazurin sodium salt (blue and non-fluorescent) to resorufin (pink color and fluorescent) by live cells. HOMEM medium with 10% FBS (100 μL) was added to all wells of a white 96-well plate apart from the first well. 200 μL of a known concentration of test compounds was diluted in HOMEM medium and placed in the first well. Compounds were tested in one plate and every compound was diluted over two rows (23 concentrations), leaving the last well of every dilution as a negative control having 100 μL HOMEM medium. Next, 100 μL of L. mexicana culture at a density of 2 × 10^6 cells mL^−1 was added into every well in the plate and incubated for 72 h at a temperature of 25 °C after which resazurin sodium salt (Sigma) (20 μL of a solution of 12.5 mg in 100 mL PBS) was added and the plate was incubated under the same conditions for a further 48 h. Fluorescence was measured in a FLUOstar OPTIMA plate reader (BMG Labtech, Germany), at a wavelength of 544 nm for excitation and 620 nm for emission. The EC50 values and fluorescence data were determined and plotted by the GraphPad Prism 8 Software using an equation for a sigmoid curve with variable slope. Pentamidine was used as positive control and every experiment was performed 3–4 times independently.

[6] = target: T1, TcrNT2; test: Transport of [^3H]-thymidine by TcrNT2 expressed in L. mexicana Cas9^ΔNT1 (Km, inhibition); format: cell-based; conditions: for ΔG° (Gibbs free energy of interaction): calculated from Km or Ki at 25 °C
Protocol: These values can be used to calculate the Gibbs free energy of interaction ΔG°, but these experiments cannot distinguish between the test compound being transported or merely binding to the transporter and inhibiting the transit of the [^3H]-thymidine.
Transport assays were conducted with radiolabeled nucleosides [methyl-^3H]-thymidine (20 Ci/mmol; PerkinElmer (Waltham, MA, USA)) and [2,8-^3H]-adenosine (40 Ci/mmol; American Radiolabeled Chemicals (ARC, St-Louis, MO, USA)). Cells were harvested from mid-log phase cultures by centrifugation and washed into an assay buffer (AB) as described, at a density of 1 × 10^8 cells mL^−1. Transport assays were then performed exactly as described previously, using an oil-stop protocol. Briefly, 100 µL of cell suspension (10^7 cells) was mixed with 100 µL of [^3H]-substrate at 2 × final concentration and incubated for a pre-set time prior to the addition of 800 µL of ice-cold AB containing a saturating concentration of unlabeled permeant (usually 1 or 2.5 mM) and immediate centrifugation through an oil layer to separate cells from extracellular radiolabel. The 100 µL of [^3H]-substrate could also contain unlabeled substrate or an inhibitor at 2 × concentration, as appropriate. Next, the microfuge tubes were flash frozen in liquid nitrogen; the tips with the cell pellets cut off and collected in scintillation tubes. Cells were solubilized by incubation in 2% SDS under gentle shaking on a rocking platform prior to the addition of scintillation fluid (Scintilogic U, Lablogic, Sheffield, UK). The tubes stored in the dark overnight before counting in a 300SL Hidex Scintillation Counter (Lablogic).
Michaelis-Menten constants (Km) were calculated by plotting transport rates of [^3H]-substrate against the concentration, using the Michaelis-Menten equation V0 = Vmax([substrate]/([substrate] + Km)) and non-linear regression in GraphPad Prism 8. Inhibition constants (Ki) were calculated using the Cheng-Prusoff equation: Ki = IC50/(1 + (L/Km)), where L represents the radiolabel concentration. The IC50 was obtained by a non-linear regression of the inhibition curve of transport rate versus inhibitor concentration, using an equation for a sigmoid curve with variable slope (GraphPad Prism 8). The Gibbs free energy ΔG° was obtained using the equation ΔG° = −RTln(Ki), in which R is the gas constant and T is the absolute temperature. As discussed previously, these equations apply to competitive rather than non-competitive inhibition. Given that only close analogues of the substrate were used as potential inhibitors and that Hill slopes were consistently close to −1, it is very likely that inhibition was indeed competitive.

[7] = tested on: intracellular T. cruzi amastigotes; conditions: T. cruzi in vitro; ref [16]; read-out: EC50 against T. cruzi in vitro; cited from earlier work
[8] = tested on: NT1 transport activity; set-up: method as in PMID 28453984; conditions: NT1 transport activity in L. mexicana; ref [36]; cited from earlier work
[9] = tested on: L. mexicana Cas9^ΔNT1 promastigotes; test: Transport of [^3H]-thymidine by L. mexicana Cas9^ΔNT1 promastigotes; format: cell-based, Leishmania mexicana; conditions: 0.05 µM [^3H]-thymidine, Cas9^ΔNT1 cells, over 180 s
Protocol: It is well documented that the NT1 transport activity is responsible for the uptake of adenosine and of pyrimidine nucleosides in Leishmania spp.. […] We thus assessed the uptake of these two nucleosides in Cas9^ΔNT1. […] In contrast, the transport of 0.1 µM of [^3H]-adenosine by L. mexicana Cas9^ΔNT1 promastigotes was virtually abolished and became statistically identical to the uptake in the presence of 1 mM unlabeled adenosine (p > 0.05).
Figure 1 [^3H]-Adenosine and [^3H]-Thymidine transport by L. mexicana Cas9 and L. mexicana Cas9^ΔNT1. (A). Transport of 0.1 µM of [^3H]-adenosine by L. mexicana Cas9 and L. mexicana Cas9^ΔNT1 was measured over 20 s in the presence or absence of 1 mM unlabeled adenosine. (B). Transport of 0.05 μM of [^3H]-thymidine by L. mexicana Cas9 and L. mexicana Cas9^ΔNT1 was measured over 180 s in the presence or absence of 1 mM unlabeled thymidine, respectively. Symbols represent the average of triplicate determinations in a single representative experiment and error bars represent ± SEM.
Transport assays were conducted with radiolabeled nucleosides [methyl-^3H]-thymidine (20 Ci/mmol; PerkinElmer (Waltham, MA, USA)) and [2,8-^3H]-adenosine (40 Ci/mmol; American Radiolabeled Chemicals (ARC, St-Louis, MO, USA)). Cells were harvested from mid-log phase cultures by centrifugation and washed into an assay buffer (AB) as described, at a density of 1 × 10^8 cells mL^−1. […]

[10] = target: P1 transporter; conditions: T. brucei P1; ref [16],[17]; cited from earlier work
[11] = target: P2/TbAT1 aminopurine transporter; conditions: T. brucei P2; ref [16],[17]; cited from earlier work

Structure (SMILES)	EC50 [1] [µM]	EC50 [2] [µM]	EC50 [3] [µM]	Ki ([4]; earlier characterization, ref Campagnaro et al. [30], read-out: Ki on thymidine transport by TcrNT2) [µM]	EC50 [5] [µM]	Ki [6] [µM]	ΔG° (Gibbs free energy of interaction) [6] [kcal/mol]	δ(ΔG°) with respect to ΔG° of thymidine ([6]; change in ΔG° relative to thymidine) [kcal/mol]	EC50 [7] [µM]	Km [8] [µM]	Km ([4]; ref [30], read-out: Km of thymidine uptake by TcrNT2)	rate of [^3H]-thymidine transport [9]	Ki [10] [µM]	Ki [11] [µM]
Nc1ncnc2c1ccn2[C@@H]1O[C@H](CO)[C@@H](O)[C@H]1O [Tubercidin, tubercidin]	0.82 ± 0.13	1.02 ± 0.16	25.7 ± 0.94	700 ± 110	0.43 ± 0.15	852 ± 2	-4.18	-4.78	0.34	–	–	–	–	–
Cc1cn([C@H]2C[C@H](O)[C@@H](CO)O2)c(=O)[nH]c1=O [thymidine]	–	–	–	–	–	–	-8.96	–	–	11.2 ± 2.4	~0.2 µM and 0.223 µM and 0.22 µM	0.00004 ± 0.000006 pmol(10^7 cells)^−1 s^−1	–	–
Nc1ncnc2c1c(Br)cn2[C@@H]1O[C@H](CO)[C@@H](O)[C@H]1O [TH1003, 7-bromo-tubercidin]	–	–	–	–	0.16 ± 0.018	784 ± 41	-4.73	–	–	–	–	–	< 5	< 5
Nc1ncnc2c1c(-c1ccccn1)cn2[C@@H]1O[C@H](CO)[C@@H](O)[C@H]1O [7-(2-pyridyl)-tubercidin]	–	–	–	–	–	–	–	–	–	–	–	–	< 5	< 5
